From US9695225B2, “Peptide compound for treatment of severe hypoglycemia” (Eli Lilly and Company, priority 2013, dated 2017)
Like-named read-outs stand apart in the source and are kept apart here. Non-standard residues stand in square brackets, D forms with d. Residues, ends and D or L forms follow the SMILES beside them. Aib = CC(C)(N)C(=O)O

What was measured:
C57/Bl6 male mice = experiment: Effects on blood glucose levels in C57/Bl6 male mice; assay type: in vivo; conditions: for Blood glucose levels: mean±SEM of 4 mice
Procedure: To determine the effects of the compound of SEQ ID NO: 2 on blood glucose levels, the compound is administered to C57/Bl6 mice. Three month old male C57BL6 mice (Harlan Laboratories) are used Animals are individually housed in a temperature-controlled (24° C.) facility with a 12 hour light/dark cycle, and have free access to food and water. After 1 week acclimation to the facility, mice are randomized to treatment groups (n=4/group). Test compound is formulated in Buffer 2 (see Physical stability test using Thioflavin T binding assay). On the morning of test, food is removed at 08:00 AM. Two hours after food is removed, the test compound is given subcutaneously at 0, 1, 3 or 10 μg/kg doses. Blood glucose is measured at time 0, 15, 30, 60 and 120 minutes after test compound administration with an ACCU-CHECK® (Roche Diagnostics) glucometer. […] Results are expressed as mean±standard error mean (SEM) of 4 mice per group.
Blood glucose levels at 10 μg/kg of compound of SEQ ID NO: 2 is taken as the maximum value.

[1] = Physical stability test using Thioflavin T binding assay (fibrillation); assay type: physicochemical; conditions: 25° C.; for Thioflavin T fluorescence t = 0 h / Thioflavin T fluorescence t = 40 h / Thioflavin T fluorescence t = 120 h: 1 mg/mL, 300 rpm
Procedure: Fibrillation is a common problem when glucagon is formulated in aqueous solution. To assess the level of fibrillation of the compound of the present invention, a Thioflavin T binding assay is performed.
All samples are mechanically stressed at 25° C. in a magnetic stir plate set at 300 rpm. […] Raw data is collected with Softmax Pro 5.4.1 (Molecular Devices) and imported to Excel.

[2] = assay type: physicochemical
Procedure: (§1) The compound of SEQ ID NO: 2 is dissolved in H2O to a 10 mg/mL concentration (peptide content), filtered through a 0.22 μm filter (Millex, SLGV004SL), and then diluted to 1 mg/mL in Buffer P5 (10 mM Histidine, 150 mM NaCl in H2O, pH 5.0) or Buffer P6 (10 mM Histidine, 150 mM NaCl in H2O, pH 6.0). Each solution is transferred to three vials and autoclaved. Samples are then maintained at 4° C., 30° C. and 40° C. Samples are visually assessed at different time points for turbidity and phase separation. Stability of the compound is assessed by analytical reverse phase HPLC (RP-HPLC) on a Phenomenex Aeris Widepore, 3.6 μm, XB-C18 4.6×100 mm column (P/NO 00D-4482-E0) heated at 60° C. with a AB (A=0.05% TFA/H2O; B=0.04% TFA/acetonitrile) gradient of 5% B isocratic over 5 min, 5 to 25% B over 20 minutes, 25 to 30% B over 30 min, and 30 to 45% B over 10 min with a flow rate of 1.2 mL/min (wavelength of 220 ηm).

[3] = Chemical stability by RP-HPLC (% main peak); assay type: physicochemical; conditions: for 4° C. % Main Peak / 30° C. % Main Peak / 40° C. % Main Peak: 4 weeks; for % Main Peak Day 0: RP-HPLC
Procedure: as §1
The compound of SEQ ID NO: 2 also maintains chemical stability at pH 5 (Buffer P5) and pH 6 (Buffer P6) when maintained at 4° C., 30° C. and 40° C. for 4 weeks.

[4] = Buffer 1 (20 mM Histidine, pH 6.0)
[5] = Buffer 2 (10 mM Histidine, 150 nM NaCl, pH 6.0)
[6] = Buffer 3 (10 mM Histidine, 300 mM sorbitol, pH 6.0)
[7] = Buffer 4 (10 mM Histidine, 0.02% Tween 80, pH 6.0)
[8] = Buffer 5 (10 mM Histidine, 300 mM Arginine, pH 6.0)
[9] = Buffer 6 (10 mM Histidine, 300 mM sucrose, pH 6.0)

CC(C)C[C@H](NC(=O)[C@H](Cc1c[nH]c2ccccc12)NC(=O)[C@H](CCC(=O)O)NC(=O)[C@@H](NC(=O)[C@H](Cc1ccccc1)NC(=O)[C@H](CCC(=O)O)NC(=O)[C@H](CCC(N)=O)NC(=O)[C@H](C)NC(=O)[C@H](CCCCN)NC(=O)[C@H](CCCCN)NC(=O)C(C)(C)NC(=O)[C@H](CC(=O)O)NC(=O)[C@H](CC(C)C)NC(=O)[C@H](Cc1ccc(O)cc1)NC(=O)[C@H](CCCCN)NC(=O)[C@H](CO)NC(=O)[C@H](Cc1ccc(O)cc1)NC(=O)[C@H](CC(=O)O)NC(=O)[C@H](CO)NC(=O)[C@H](CC(C)C)NC(=O)[C@H](Cc1ccccc1)NC(=O)[C@@H](NC(=O)CNC(=O)[C@H](CCC(N)=O)NC(=O)[C@H](C)NC(=O)[C@@H](N)Cc1c[nH]cn1)[C@@H](C)O)C(C)C)C(=O)N[C@@H](CC(C)C)C(=O)N[C@@H](CCCCN)C(=O)N[C@H](C(=O)NCC(=O)N1CCC[C@H]1C(=O)N[C@@H](CO)C(=O)N[C@@H](CO)C(=O)NCC(=O)N[C@@H](C)C(=O)N1CCC[C@H]1C(=O)N1CCC[C@H]1C(=O)N[C@@H](CCCCN)C(=O)N[C@@H](CO)C(=O)N[C@@H](CCCCN)C(N)=O)[C@@H](C)O [SEQ ID NO: 2] (H-HAQGTFLSDYSKYLD[Aib]KKAQEFVEWLLKTGPSSGAPPKSK-NH2)
Blood glucose levels (C57/Bl6 male mice; 1 μg/kg subcutaneously, 0 minutes): 165.3 ± 16.7 mg/dL | Blood glucose levels (C57/Bl6 male mice; 1 μg/kg subcutaneously, 15 minutes): 212.0 ± 12.6 mg/dL | Blood glucose levels (C57/Bl6 male mice; 1 μg/kg subcutaneously, 30 minutes): 203.1 ± 13.1 mg/dL | Blood glucose levels (C57/Bl6 male mice; 1 μg/kg subcutaneously, 60 minutes): 169.9 ± 10.1 mg/dL | Blood glucose levels (C57/Bl6 male mice; 1 μg/kg subcutaneously, 120 minutes): 141.0 ± 4.2 mg/dL | Blood glucose levels (C57/Bl6 male mice; 3 μg/kg subcutaneously, 0 minutes): 148.0 ± 4.6 mg/dL | Blood glucose levels (C57/Bl6 male mice; 3 μg/kg subcutaneously, 15 minutes): 234.1 ± 9.8 mg/dL | Blood glucose levels (C57/Bl6 male mice; 3 μg/kg subcutaneously, 30 minutes): 242.1 ± 8.3 mg/dL | Blood glucose levels (C57/Bl6 male mice; 3 μg/kg subcutaneously, 60 minutes): 169.4 ± 7.3 mg/dL | Blood glucose levels (C57/Bl6 male mice; 3 μg/kg subcutaneously, 120 minutes): 148.2 ± 10.9 mg/dL | Blood glucose levels (C57/Bl6 male mice; 10 μg/kg subcutaneously, 0 minutes): 155.4 ± 10.1 mg/dL | Blood glucose levels (C57/Bl6 male mice; 10 μg/kg subcutaneously, 15 minutes): 270.0 ± 12.7 mg/dL | Blood glucose levels (C57/Bl6 male mice; 10 μg/kg subcutaneously, 30 minutes): 308.5 ± 2.6 mg/dL | Blood glucose levels (C57/Bl6 male mice; 10 μg/kg subcutaneously, 60 minutes): 212.4 ± 8.3 mg/dL | Blood glucose levels (C57/Bl6 male mice; 10 μg/kg subcutaneously, 120 minutes): 152.4 ± 1.5 mg/dL | ED50 (C57/Bl6 male mice; calculated on the 30 minute glucose measurements, 10 μg/kg taken as maximum, subcutaneous): 3.28 µg/kg | effect on blood glucose (C57/Bl6 male mice; subcutaneous, C57/Bl6 mice): able to increase blood glucose | fibrillation as measured by the Thioflavin T binding assay ([1]; pH 6, mechanical stress): did not demonstrate fibrillation | Thioflavin T fluorescence t = 0 h [1, 4]: 74.6 fluorescence units | Thioflavin T fluorescence t = 40 h [1, 4]: 76.9 fluorescence units | Thioflavin T fluorescence t = 120 h [1, 4]: 89.2 fluorescence units | Thioflavin T fluorescence t = 0 h [1, 5]: 130.1 fluorescence units | Thioflavin T fluorescence t = 120 h [1, 5]: 137.0 fluorescence units | Thioflavin T fluorescence t = 40 h ([1]; Buffer 2 (10 mM Histidine, NaCl, pH 6.0)): 137.3 fluorescence units | Thioflavin T fluorescence t = 0 h [1, 6]: 68.1 fluorescence units | Thioflavin T fluorescence t = 40 h [1, 6]: 71.4 fluorescence units | Thioflavin T fluorescence t = 120 h [1, 6]: 72.4 fluorescence units | Thioflavin T fluorescence t = 0 h [1, 7]: 51.9 fluorescence units | Thioflavin T fluorescence t = 40 h [1, 7]: 56.2 fluorescence units | Thioflavin T fluorescence t = 120 h [1, 7]: 57.4 fluorescence units | Thioflavin T fluorescence t = 0 h [1, 8]: 113.9 fluorescence units | Thioflavin T fluorescence t = 40 h [1, 8]: 120.0 fluorescence units | Thioflavin T fluorescence t = 120 h [1, 8]: 123.2 fluorescence units | Thioflavin T fluorescence t = 0 h [1, 9]: 78.0 fluorescence units | Thioflavin T fluorescence t = 40 h [1, 9]: 74.1 fluorescence units | Thioflavin T fluorescence t = 120 h [1, 9]: 88.9 fluorescence units | solubility by visual assessment and RP-HPLC [2]: maintains good solubility | Physical appearance ([2]; 1 mg/mL, Buffer P5 and P6, over 4 weeks): clear to colorless, with no opalescences and no particles | 30° C. vs 4° C. Recovery 4 wk ([2]; Buffer P5 (pH 5.0)): 100% | 40° C. vs 4° C. Recovery 4 wk ([2]; Buffer P5 (pH 5.0)): 100% | 30° C. vs 4° C. Recovery 4 wk ([2]; Buffer P6 (pH 6.0)): 100% | 40° C. vs 4° C. Recovery 4 wk ([2]; Buffer P6 (pH 6.0)): 101% | 4° C. Total Peak Area 4 wk ([2]; pH 5): 4933 | 30° C. Total Peak Area 4 wk ([2]; pH 5): 4932 | 40° C. Total Peak Area 4 wk ([2]; pH 5): 4932 | 4° C. Total Peak Area 4 wk ([2]; pH 6): 4918 | 30° C. Total Peak Area 4 wk ([2]; pH 6): 4911 | 40° C. Total Peak Area 4 wk ([2]; pH 6): 4960 | 4° C. % Main Peak ([3]; Buffer P5 (pH 5.0)): 98.01% | 30° C. % Main Peak ([3]; Buffer P5 (pH 5.0)): 97.07% | 40° C. % Main Peak ([3]; Buffer P5 (pH 5.0)): 92.64% | % Main Peak Day 0 ([3]; Buffer P5 (pH 5.0)): 99.55% | 4° C. % Main Peak ([3]; Buffer P6 (pH 6.0)): 98.60% | 30° C. % Main Peak ([3]; Buffer P6 (pH 6.0)): 97.71% | 40° C. % Main Peak ([3]; Buffer P6 (pH 6.0)): 95.00% | % Main Peak Day 0 ([3]; Buffer P6 (pH 6.0)): 99.02% | main peak changes ([3]; pH 5 (Buffer P5), after 4 weeks at 30° vs. 4° C.): less than 1% | main peak changes ([3]; pH 5 (Buffer P5), after 4 weeks at 40° C. vs. 4° C.): less than 6% | main peak changes ([3]; pH 6 (Buffer P6), after 4 weeks at 30° vs. 4° C.): less than 1% | main peak changes ([3]; pH 6 (Buffer P6), after 4 weeks at 40° C. vs. 4° C.): less than 4%
